In patent US7767463B2, “Method for screening mobile phases in chromatography systems” (Cohesive Technologies, Inc., priority 2007, dated 2010):

Type: physicochemical
Description: The method provided herein provides for a technique to more reliably screen and select an appropriate eluent protocol. In an exemplary embodiment, reference is therefore made to FIG. 2. A given solvent or solvent combination may be prepared 210. Then a desired sample, alone or premixed with the same or another solvent, may be combined with the given solvent forming a mobile phase 220. The mobile phase may then be passed through a membrane 230. As discussed more fully below, the membrane may be representative of a particular chromatographic column with respect to variables such as pore diameter. The pressure of the mobile phase as it passes through the membrane may then be measured by pressure detectors on one or both sides of the membrane 240. The pressure differential between mobile phases containing the desired sample and various solvents may be assessed at 250. […]
The pressure developed prior to the membrane as the mobile phase passes through the membrane may be, as discussed above, indicative of the dissolution between the sample and the solvent. […] In addition, by comparing the pressure developed prior to the membrane of a given mobile phase P1 with a sample to a similar sample in other and different solvents, relative solubility may again be determined. […]

## c1ccc2ccccc2c1 [naphthalene]
  pressure differential: 25 bar
